Data reported in patent US20140024674A1, “TRPM5 INHIBITORS SUPPORT BODY WEIGHT REDUCTION WITHOUT REDUCING FOOD INTAKE” (NESTEC S.A., priority 2011, published 2014).
Entries after “also recorded” stand apart in the source; their conditions may differ.

Experiments:
[1] = Quinine-supplemented diet in wild type mice over 12 weeks: body weight, body composition (NMR), food intake; type: in vivo; conditions: for mean fat mass at the end of the trial: control 7.65 g±0.47
Procedure: Body composition was determined on […] mice by nuclear magnetic resonance (NMR) using an EchoMRI-900 Body Composition Analyzer (Echo Medical System, LLC, Houston, Tex., USA).
Three groups of wild type male C57BL6 mice 3 months old, 20 mice per group, were fed either a semi-synthetic (AlN) diet, or AlN diet with 0.1% quinine, or AlN diet with 0.01% quinine.
Body weight was measured weekly, body composition was measured monthly, food and fluid intake were measured twice a week over a period of 12 weeks.

Trpm5 = target: T1, Trpm5 (Mus musculus, UniProt Q9JJH7); conditions: Talayera et al, 2008, FASEB J.; cited from earlier work
T1 sequence (Q9JJH7 1-1158): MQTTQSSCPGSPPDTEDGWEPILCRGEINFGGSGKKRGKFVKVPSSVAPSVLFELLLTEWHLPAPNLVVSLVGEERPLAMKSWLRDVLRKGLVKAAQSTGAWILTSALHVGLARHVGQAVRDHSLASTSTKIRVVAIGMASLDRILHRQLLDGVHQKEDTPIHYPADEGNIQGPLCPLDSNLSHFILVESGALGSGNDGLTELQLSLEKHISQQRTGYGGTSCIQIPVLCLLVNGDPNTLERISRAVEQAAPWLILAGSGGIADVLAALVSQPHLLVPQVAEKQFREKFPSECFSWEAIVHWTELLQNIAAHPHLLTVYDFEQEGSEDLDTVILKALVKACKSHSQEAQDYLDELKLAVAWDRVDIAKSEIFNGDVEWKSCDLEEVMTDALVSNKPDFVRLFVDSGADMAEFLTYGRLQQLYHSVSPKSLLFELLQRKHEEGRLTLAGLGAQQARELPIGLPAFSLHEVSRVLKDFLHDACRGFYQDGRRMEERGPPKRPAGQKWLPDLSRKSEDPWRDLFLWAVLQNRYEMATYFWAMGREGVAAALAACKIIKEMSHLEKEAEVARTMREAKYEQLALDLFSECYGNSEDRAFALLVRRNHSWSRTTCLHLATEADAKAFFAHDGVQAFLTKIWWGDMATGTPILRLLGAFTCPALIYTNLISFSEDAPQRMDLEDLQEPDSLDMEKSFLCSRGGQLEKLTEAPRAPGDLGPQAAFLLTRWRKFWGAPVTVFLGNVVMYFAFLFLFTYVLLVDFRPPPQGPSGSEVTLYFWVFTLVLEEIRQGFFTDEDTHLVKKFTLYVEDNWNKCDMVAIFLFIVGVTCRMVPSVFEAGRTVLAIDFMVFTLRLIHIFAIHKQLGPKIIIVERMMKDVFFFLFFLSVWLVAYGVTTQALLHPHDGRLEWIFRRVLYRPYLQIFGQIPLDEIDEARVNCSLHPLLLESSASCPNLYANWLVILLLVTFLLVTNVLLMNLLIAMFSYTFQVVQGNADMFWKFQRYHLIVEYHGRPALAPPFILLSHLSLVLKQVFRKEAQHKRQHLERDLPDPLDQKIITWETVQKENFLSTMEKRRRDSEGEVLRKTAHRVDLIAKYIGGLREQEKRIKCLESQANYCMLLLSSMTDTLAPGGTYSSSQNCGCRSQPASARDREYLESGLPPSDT

C=C[C@H]1CN2CC[C@H]1C[C@H]2[C@H](O)c1ccnc2ccc(OC)cc12 [quinine, (R)-(6-methoxyquinolin-4-yl)((2S,4S,8R)-8-vinylquinuclidin-2-yl)methanol]
mean fat mass at the end of the trial ([1]; wild type male C57BL6 mice, AlN diet with 0.01% quinine, 12 weeks, NMR): 7.9675 g | Body weight gain ([1]; wild type male C57BL6 mice, AlN diet with 0.01% quinine, 12 weeks, vs control diet): not different from control | mean fat mass at the end of the trial ([1]; wild type male C57BL6 mice, AlN diet with 0.1% quinine, 12 weeks, NMR, p<0.01 compared to control): 5.524 g | Body weight gain ([1]; wild type male C57BL6 mice, AlN diet with 0.1% quinine, 12 weeks, vs control diet (p<0.01)): gained less weight; also recorded: significantly lower | lean mass ([1]; wild type male C57BL6 mice, diet with 0.1% or 0.01% quinine vs control diet, 12 weeks, NMR): no difference between groups | Total food intake ([1]; wild type male C57BL6 mice, diet with 0.1% or 0.01% quinine vs control diet, over 12 weeks): food intake was not different between the groups; also recorded: no difference in food intake between groups | fat mass gain vs control diet ([1]; wild type mice, 0.1% quinine supplemented diet, 12 weeks): gained less weight and fat mass | inhibition of Trpm5 (Trpm5): inhibitor of Trpm5
